Data set [1] deals with HSV-TK-transduced cells. As to the kind of experiment: Cell proliferation assay, low copy number, HSV-TK. It is filed as cell-based. On the procedure:
(§1) In another experiment, the cells were transduced with a low copy number of the plasmids and, thus, differences between the different nucleoside analogs could be observed. […] Ganciclovir at high concentrations is also toxic to non-transduced cells.
(§2) Finally, the cell proliferation assay was also performed with the SR39 or HSV-TK-transduced cells treated with penciclovir. […] Thus, penciclovir may be used as the prodrug with the suicide gene construct, such as HSV-TK, SR39, or UL97.

For data set [2], the system named is SR39-transduced cells. In words: Cell proliferation assay, low copy number, SR39. The class given is cell-based. On the procedure: as §1, §2
Data set [3] concerns HEK cells transfected with UL97 under the UBI promoter. As to the kind of experiment: Cell proliferation/viability assay, high copy number plasmid, UL97. The class given is cell-based. On the procedure:
(§3) In further experiments, cell proliferation assay was performed using different suicide gene constructs in combination with various drugs, such as acyclovir, ganciclovir, or pencilovir. In the first assay, a kinase from human cytomegalovirus (CMV), UL97, was used as a novel suicide gene. The HEK cells were transfected with a high copy number of the respective plasmids.

Data set [4] deals with control neurons. As to the kind of experiment: Calcein cell viability assay, ganciclovir on control neurons. The note with it: concentrations up to 40 μM. It is filed as cell-based, human. The protocol:
(§4) Cell Proliferation Measurement by Calcein Assay:
(§5) Cells were plated onto a 96 wells pre-coated with polyornothine+ECM (1/50). Respectively 1000 cells for pluripotent stem cells, 5000 cells for early NPC and 30000 cells for late NPC. Ganciclovir (Cemevene diluted in PBS, Roche) treatment was added the day after cell plating for PSC, 3 days later for early NPC and one week later for late NPC. Calcein (2 μM) was added for different time course of ganciclovir treatment (24H to 96H). Cell survival was measured by calcein integration after 24h of incubation in a 37° C. incubator.

Data set [5] relates to TK-PSC (HS415 pluripotent stem cells expressing HSV-TK under the Ki67 promoter). As to the kind of experiment: Calcein cell viability assay, ganciclovir on TK-PSC. The class given is cell-based, human. The protocol: as §4, §5
For data set [6], the system named is TK-NPCs. As to the kind of experiment: Calcein cell viability assay, ganciclovir time course on TK-NPC. The note with it: 40 μM. It is filed as cell-based, human. The protocol:
as §4, §5

Data set [7] has as its system TK-PSC transplanted into the striatum. In words: Transplantation of TK-PSC into striatum and ganciclovir treatment (teratoma formation). It is filed as in vivo, NOD/SCID mice. On the procedure: (§6) FIGS. 3A-3C: Schedule of cell transplantation and ganciclovir treatment. Different transplantation and ganciclovir treatment protocols were used. (A) Schematic representation of the differentiation protocol towards DA neurons. Pluripotent stem cells were cultured as neurospheres for 1 week for midbrain orientation phase, followed by a 2 or 3 week-maturation phase. (B) Transplantation of undifferentiated pluripotent stem cells with early or late ganciclovir treatment. Early treatment: undifferentiated pluripotent stem cells were transplanted and ganciclovir (or PBS control) was applied by daily intra-peritoneal injection from day 4 to day 19 post-transplantation. Late treatment: undifferentiated pluripotent stem cells were transplanted and ganciclovir (or PBS control) was applied by daily intra-peritoneal injection from day 30 to day 45 post-transplantation. (C) Transplantation of 2 or 3 week NPC: NPC containing—neurospheres were dissociated and transplanted into mice striatum. Ganciclovir (or PBS control) treatment was given from day 4 to day 19 post-transplantation. For all protocols, animals were sacrificed 1 month after termination of ganciclovir treatment.
(§7) Stereotaxic engraftment and ganciclovir treatment:
(§8) Undifferentiated pluripotent stem cells (20000 cells/μL) and dissociated neurospheres (100.000 cells/μL) were injected in the striatum of anesthetized mice using a 27-G Hamilton syringe. Injection coordinates for lateral striatum were: bregma=0.74 mm, mediolateral=2.25 mm, dorsoventral=3.5 mm; for medial striatum: bregma=0.74 mm, mediolateral=1.4 mm, dorsoventral=2.8 mm. Mice were euthanized one month later after ganciclovir termination.
(§9) Morphological and Phenotypic Analysis of Injected Surviving Cells:
(§10) Anesthetized mice were fixed by intracardiac perfusion of 4% paraformaldehyde in phosphate-buffered saline. Immunohistochemical detection was performed on 10-μm thick free-floating cryostat sections using Alexa 488-, or 555-labeled secondary antibodies or the biotin-avidin-peroxidase complex method (Vector). The following primary antibodies were used: Nestin (rabbit polyclonal anti-human, from Chemicon, 1/400), β3-tubulin (mouse monoclonal from Sigma or rabbit polyclonal from Covance, 1/2000), Neuronal Nuclei-specific protein (NeuN, mouse monoclonal from Chemicon, 1/1000), Glial Fibrillary Acidic Protein (GFAP, rabbit polyclonal from Dako, 1/2000), Proliferating Cell Nuclear Antigen (PCNA, mouse monoclonal from Dako, 1/100), Tyrosin Hydroxylase (TH, rabbit polyclonal from millipore, 1/500), iba 1 (polyclonal rabbit from Wako, 1/500), HSV-TK (mouse monoclonal, Gentaur, 1/100), ki67 (monoclonal rabbit, Abcam, 1/100 or mouse, Chemicon, 1/100).

Data set [8] deals with non-transduced cells. In words: Cell proliferation assay, non-transduced cells. The class given is cell-based. On the procedure: as §1, §2
Data set [9] deals with TK-NPC transplants. As to the kind of experiment: Transplantation of 2-3 week NPC neurospheres into striatum and ganciclovir treatment. The class given is in vivo, mice. On the procedure:
as §6, with “Ganciclovir (or PBS control) treatment was given from day 4 to day 19 post-transplantation.” left out
as §7, §8, §9, §10
BrdU (100 mg/kg, Millipore) was injected intraperitoneally twice daily for 3 consecutive days. Mice were sacrificed 5 days later and perfused, through the heart, with PBS and 4% paraformaldehyde in PBS. […]

In data set [10] the test system is HEK cells transfected with HSV-TK plasmid. As to the kind of experiment: Cell proliferation/viability assay, high copy number plasmid, HSV-TK. The class given is cell-based. The protocol: as §3
Data set [11] has as its system regular PSCs (not transduced with the TK construct). In words: Calcein cell viability assay, ganciclovir on control PSC. The class given is cell-based, human. Conditions: concentrations of 40 μM. The protocol: as §4, §5

“Also recorded” adds a separate entry of the source.

Regarding `Nc1nc2c(ncn2COCCO)c(=O)[nH]1` [acyclovir, Acyclovir], in [1], the “concentration needed to kill HSV-TK-transduced cells” value is reported as “very high concentrations”. Besides, the “concentration needed to kill SR39-transduced cells” value in data set [2] is “very high concentrations”.
As to `Nc1nc(O)c2ncn(COC(CO)CO)c2n1` [ganciclovir, Ganciclovir], the “sensitivity of UL97-transfected HEK cells” value in data set [3] is given as “showed sensitivity”. In addition, the “concentration needed to kill HSV-TK-transduced cells” value in data set [1] is “relatively low concentration”. In addition, the “effect on control neurons” value in data set [4] was “not affected”. Also, in data set [5] (40 μM), the “time in which TK PSCs were killed” value is recorded as not above 4 days. In addition, the “sensitivity of TK PSCs to ganciclovir exposure” value in data set [5] (96h exposure) is listed as “highly sensitive”. Besides, in data set [5] (TK PSCs, 96h exposure), the “ganciclovir concentration at which loss of cells was almost complete” value was 10 µM and the “ganciclovir concentration at which loss of cells was observed” value is 2.5 µM. For the same molecule, the “concentration needed to kill SR39-transduced cells” value in data set [2] is listed as “relatively low concentration”. Further, the “time to complete killing of TK-NPCs” value in [6] (TK-NPCs after 1 week of neurosphere differentiation) is 8 days. Moreover, the “killing of TK-NPCs” value in data set [6] (TK-NPCs after 2 weeks of neurosphere differentiation) is on record as “not killed”. In addition, the “teratoma formation, early ganciclovir treatment” value in [7] (15 days ganciclovir starting 4 days post-transplantation, daily intra-peritoneal injection) was “no observed teratomas; also recorded: absence of teratoma formation and cell proliferation”. In addition, the “development of large tumors (graft surface), early ganciclovir treatment” value in [7] (PSC transplanted, early treatment) was “completely prevented”. For the same molecule, the “tumor size (graft surface), late ganciclovir treatment” value in data set [7] (PSC transplanted, late treatment) is reported as “did not have any effect”. Moreover, the “human cells (HCM) remaining in graft, early ganciclovir treatment” value in data set [7] (day 4 to 19 post-transplantation, analysed one month after end of treatment) was “hardly any human cells left; also recorded: barely detectable”. The “teratoma formation, late ganciclovir treatment” value in data set [7] (ganciclovir days 30-45 post-transplantation, sacrifice 30 days after end of treatment) was “teratoma formation in both; also recorded: no difference”. In data set [8] (at high concentrations), the “toxicity to non-transduced cells” value is reported as “toxic”. In addition, the “size of NPC transplants (graft surface)” value in data set [9] (NPC derived from 2-3 weeks old neurospheres) is recorded as “not affected”. Further, the “PCNA / Ki67 staining pattern of transplants” value in data set [9] (NPC transplants) is reported as “did not alter this pattern”. Further, the “neural markers of transplanted cells (beta 3 tubulin, TH, nestin)” value in data set [9] (immunofluorescence 7 weeks after transplantation) is recorded as “None of these markers were affected”. Moreover, in data set [9] (treated on days 7-22 following transplantation, sacrifice 4 weeks after end of treatment), the “graft development, PBS versus ganciclovir” value is recorded as “No difference was observed”. Moreover, the “sensitivity of HSV-TK-transfected HEK cells” value in [10] is recorded as “sensitivity”. Moreover, in [11], the “effect on regular (control) PSCs” value was “resistant; also recorded: no ganciclovir toxicity is observed”.
For the molecule `Nc1nc2c(ncn2CCC(CO)CO)c(=O)[nH]1` [penciclovir, Penciclovir], the “concentration needed to kill HSV-TK-transduced cells” value in data set [1] is recorded as “relatively low concentrations”. The “concentration needed to kill SR39-transduced cells” value in [2] is “relatively low concentrations”. Moreover, the “toxicity in untransduced cells” value in data set [8] is on record as “did not show any toxicity”.

(Values after US11542524B2, “Elimination of proliferating cells from stem cell-derived grafts” (priority 2017, dated 2023).)
